In patent US12545677B2, “Compounds useful as factor XIa inhibitors” (JANSSEN PHARMACEUTICA NV, priority 2020, dated 2026):
Where two headings read alike, the source gives them in different places.

Test: Rat PK study
Format: in vivo, Sprague-Dawley rats
Method: Biological Example 5: PK Studies
Animals: Male Sprague-Dawley rats (7-8 weeks old, body weight 250-300 g) were kept in plastic cages with free access to standard rat diet (Keaoxieli, Beijing, China) and water. The animals were maintained at a temperature of 20-25° C. with a 12-hour light/dark cycle and relative humidity of 40%-70% before the experiment.
Pharmacokinetics in rats: The cannulation of the jugular vein was pre-treated to the rats 2-3 days prior to the study. Test compound (dissolved in PEG400/water (1:1) or suspended in 0.5% HPMC) was administered orally via oral gavage at a dose of 5 or 10 mg/kg to 3 rats, and test compound (dissolved in 20% HPbCD or PEG400/water (1:1)) was injected to the tail vein at a dose of 1 or 2 mg/kg to 3 rats.
Blood samples (approximately 0.2 ml, each) were collected from the jugular vein at 0 (as a pre-dose), 5 (only for IV administration), 15, 30, 60, 120, 240, 360, 480 and 1440 mins post dose. A volume of 0.2 ml of heparinized 0.9% NaCl injectable solution (50 U/mL) was used to flush each cannula immediately after obtaining each blood sample, in order to prevent blood clotting and to compensate for fluid loss. Blood samples were separated by centrifugation, and approximately 0.1 ml aliquot of plasma was stored at −80° C. until analysis.
LC-MS/MS analysis: The analyte was assayed by a liquid chromatography coupled with tandem mass spectrometry (LC-MS/MS) method. The LC-MS/MS system consisted of a Shimadzu HPLC system (Kyoto, Japan) and API 5500 triple-quadrupole mass spectrometer equipped with a turbo electrospray ionization (ESI) source (AB Sciex, Toronto, Canada). LC conditions were as follows: column, Synergi 2.5μ Polar-RP 100A (50*3.0 mm) (Phenomenex, Torrance, CA); gradient elution at 0.5 mL/min with 5% acetonitrile in water containing 0.1% formic acid or 95% acetonitrile in water containing 0.1% formic acid; and injection volume, 10 μL. A multiple reaction monitoring (MRM) method was selected for quantitative analysis. The optimized transitions were Q1→Q3 and M1→M3 for analyte and internal standard, respectively. The instrumental parameters were set as follows: ion spray voltage: 5500 V; curtain gas: 30 psi; nebulizer gas: 50 psi; turbo gas: 50 psi; collision gas: 10 psi; temperature: 450° C.
Data analysis: Standard methods were used to calculate the pharmacokinetic parameters, such as the total area under the plasma concentration-time curve from time 0 to infinity (AUC0-t) and terminal half-life, using non-compartmental analysis (WinNonlin), the peak plasma concentration (Cmax) and time to reach Cmax (Tmax) were determined directly from the experimental data.

O=C1C=C(c2c(-n3cnnn3)ccc(Cl)c2F)C[C@H]2CC[C@@H](c3ncc(-c4ccnc(CO)c4F)[nH]3)N12 [Compound of formula (I-A), (3S,8aR)-7-(3-Chloro-2-fluoro-6-(1H-tetrazol-1-yl)phenyl)-3-(5-(3-fluoro-2-(hydroxymethyl)pyridin-4-yl)-1H-imidazol-2-yl)-2,3,8,8a-tetrahydroindolizin-5(1H)-one]
F (formulation vehicle: 0.5% HPMC at 10 mg/kg): 53.4% (formulation vehicle: 0.5% HPMC at 10 mg/kg) | clearance (male, Sprague-Dawley, plasma, IV, 20% HPbCD at 2 mg/kg): 19.6 mL/min/kg | half-life (male, Sprague-Dawley, plasma, IV, formulation vehicle: 20% HPbCD at 2 mg/kg, read-out: t1/2 (IV) (converted)): 3.25 h | Cmax (male, Sprague-Dawley, plasma, PO, 0.5% HPMC at 10 mg/kg): 3770 ng/mL | half-life (male, Sprague-Dawley, plasma, PO, 0.5% HPMC at 10 mg/kg, read-out: t1/2 (PO) (converted)): 2.66 h
